Assay results from US20160158200A1, “Combinations of Hepatitis C Virus Inhibitors” (priority 2013, published 2016).

Experiments:
[1] = test system: HCV genotype 1a L31V variant with leucine 31 changed to valine in the NS5A protein; assay: microbe, parasite or virus in culture; type: cell-based; conditions: genotype 1a L31V replicon; test compound titrated with compound N47 fixed at 200 nM versus singly
[2] = test system: HCV genotype 1a Y93H variant with tyrosine 93 changed to histidine in the NS5A protein; assay: microbe, parasite or virus in culture; type: cell-based; conditions: genotype 1a Y93H replicon; test compound titrated with compound N47 fixed at 200 nM versus singly
Method: Combinations can be examined for synergistic activity using a variety of putative NS5A-targeting compounds and a variety of test compounds. […] The test compound can be chosen from compounds exemplified below, which were prepared by methods known in the art, or from others disclosed in the literature.
Similarly, BMS-790052 can be tested singly and in combination with a fixed amount of compound N47 in the HCV replicon cell based assay consisting of the genotype 1a Y93H variant with tyrosine 93 changed to histidine in the NS5A protein.

Structure (SMILES)	Fold-Synergistic G-1a (L31V) [1]	Fold-Synergistic G-1a (Y93H) [2]
O=C(Cc1ccccc1)N1CCC[C@H]1c1nc2cc(C#Cc3ccc4nc([C@@H]5CCCN5C(=O)Cc5ccccc5)[nH]c4c3)ccc2[nH]1	<10 fold	<10 fold
O=C(Cc1ccccc1)N1CCC[C@H]1c1nc2cc(CCc3ccc4nc([C@@H]5CCCN5C(=O)Cc5ccccc5)[nH]c4c3)ccc2[nH]1	<10 fold	<10 fold
C[C@H](NC(=O)OCc1ccccc1)c1nc2ccc(CCc3ccc4nc([C@H](C)NC(=O)OCc5ccccc5)[nH]c4c3)cc2[nH]1	<10 fold	<10 fold
CC[C@H]1CC[C@@H](c2ncc(-c3ccc(-c4ccc(-c5cnc([C@@H]6CC[C@H](CC)N6C(=O)[C@@H](NC(=O)OC)C(C)C)[nH]5)cc4)cc3)[nH]2)N1C(=O)[C@@H](NC(=O)OC)C(C)C	>100 fold	>100 fold
COC(=O)N[C@H](C(=O)N1[C@@H]2C[C@@H]2C[C@H]1c1nc2ccc(C#CC#Cc3ccc4nc([C@@H]5C[C@H]6C[C@H]6N5C(=O)[C@@H](NC(=O)OC)C(C)C)[nH]c4c3)cc2[nH]1)C(C)C	>10 fold	>100 fold
COC(=O)N[C@H](C(=O)N1CCC[C@H]1c1nc2cc(-c3ccc4ccc(-c5ccc6nc([C@@H]7CCCN7C(=O)[C@@H](NC(=O)OC)C(C)C)[nH]c6c5)cc4c3)ccc2[nH]1)C(C)C	>10 fold	>10 fold
COC(=O)N[C@H](C(=O)N1CCC[C@H]1c1nc2cc(-c3ccc4cc(-c5ccc6[nH]c([C@@H]7CCCN7C(=O)[C@@H](NC(=O)OC)C(C)C)nc6c5)ccc4c3)ccc2[nH]1)C(C)C	>10 fold	>10 fold
COC(=O)N[C@H](C(=O)N1CCCC1c1nc2cc(-c3ccc4cc(-c5ccc(-c6cnc([C@@H]7CCCN7C(=O)[C@@H](NC(=O)OC)C(C)C)[nH]6)cc5)ccc4c3)ccc2[nH]1)C(C)C (stereo partly drawn)	>10 fold	>10 fold
COC(=O)N[C@H](C(=O)N1[C@H](c2ncc(-c3ccc(-c4ccc(-c5cnc([C@@H]6CCN(C)N6C(=O)[C@@H](NC(=O)OC)C(C)C)[nH]5)cc4)cc3)[nH]2)CCN1C)C(C)C	>100 fold	>100 fold
COC(=O)N[C@@H](C(=O)N1CCC[C@H]1c1nc2cc(-c3ccc(-c4ccc5c(ccc6[nH]c([C@@H]7CCCN7C(=O)[C@H](NC(=O)OC)c7ccccc7)nc65)c4)cc3)ccc2[nH]1)c1ccccc1	<10 fold	<10 fold
COC(=O)N[C@H](C(=O)N1CCC[C@H]1c1ncc(C#Cc2ccc(-c3ccc4nc([C@@H]5CCCN5C(=O)[C@@H](NC(=O)OC)C(C)C)[nH]c4c3)cc2)[nH]1)C(C)C	>100 fold	>100 fold
COC(=O)N[C@@H](C(=O)N1CCC[C@H]1c1ncc(C#CC#Cc2cnc([C@@H]3CCCN3C(=O)[C@H](NC(=O)OC)c3ccccc3)[nH]2)[nH]1)c1ccccc1	<10 fold	<10 fold
COC(=O)N[C@H](C(=O)N1CCC[C@H]1c1ncc(-c2ccc(C#Cc3ccc4c(ccc5[nH]c([C@@H]6CCCN6C(=O)[C@@H](NC(=O)OC)C(C)C)nc54)c3)cc2)[nH]1)C(C)C	<10 fold	>100 fold
COC(=O)N[C@H](C(=O)N1[C@@H]2C[C@@H]2C[C@H]1c1ncc(-c2ccc(C#Cc3ccc(-c4cnc([C@@H]5C[C@H]6C[C@H]6N5C(=O)[C@@H](NC(=O)OC)C(C)C)[nH]4)cc3)cc2)[nH]1)C(C)C	<10 fold	>10 fold
COC(=O)N[C@H](C(=O)N1[C@@H]2C[C@@H]2C[C@H]1c1nc2ccc(-c3ccc4cc(-c5ccc6nc([C@@H]7C[C@H]8C[C@H]8N7C(=O)[C@@H](NC(=O)OC)C(C)C)[nH]c6c5)ccc4c3)cc2[nH]1)C(C)C	>10 fold	>10 fold
COC(=O)N[C@H](C(=O)N1C[C@@H]2C[C@@H]2[C@H]1c1ncc(-c2ccc(-c3ccc(-c4cnc([C@@H]5[C@H]6C[C@H]6CN5C(=O)[C@@H](NC(=O)OC)C(C)C)[nH]4)cc3)cc2)[nH]1)C(C)C	>100 fold	>100 fold
COC(=O)N[C@H](C(=O)N1CC[C@H](C)[C@H]1c1ncc(-c2ccc(-c3ccc(-c4cnc([C@@H]5[C@@H](C)CCN5C(=O)[C@@H](NC(=O)OC)C(C)C)[nH]4)cc3)cc2)[nH]1)C(C)C	>100 fold	>100 fold

Structure (SMILES)	Fold-Synergistic G-1a (L31V) [1]	Fold-Synergistic G-1a (Y93H) [2]
COC(=O)N[C@H](C(=O)N1CCC[C@H]1c1nc2cc(-c3ccc4cc(-c5cnc6[nH]c([C@@H]7CCCN7C(=O)[C@@H](NC(=O)OC)C(C)C)nc6c5)ccc4c3)cnc2[nH]1)C(C)C	>10 fold	>10 fold
COC(=O)N[C@H](C(=O)N1CCC[C@H]1c1ncc(-c2ccc(-c3ccc4cc(-c5cnc([C@@H]6CCCN6C(=O)[C@@H](NC(=O)OC)C(C)C)[nH]5)ccc4c3)cc2)[nH]1)C(C)C	<10 fold	>10 fold
COC(=O)N[C@H](C(=O)N1[C@@H]2C[C@@H]2C[C@H]1c1nc(Cl)c(-c2ccc(-c3ccc(-c4[nH]c([C@@H]5C[C@H]6C[C@H]6N5C(=O)[C@@H](NC(=O)OC)C(C)C)nc4Cl)cc3)cc2)[nH]1)C(C)C	>10 fold	<10 fold
COC(=O)N[C@H](C(=O)N1CCC[C@H]1c1ncc(-c2ccc3oc(-c4ccc5nc([C@@H]6CCCN6C(=O)[C@@H](NC(=O)OC)C(C)C)[nH]c5c4)nc3c2)[nH]1)C(C)C	>100 fold	>100 fold
COC(=O)N[C@H](C(=O)N1[C@@H]2C[C@@H]2C[C@H]1c1nc2cc(CCc3ccc4c(ccc5[nH]c([C@@H]6C[C@H]7C[C@H]7N6C(=O)[C@@H](NC(=O)OC)C6CCOCC6)nc54)c3)ccc2[nH]1)C(C)C	>10 fold	>100 fold
COC(=O)N[C@H](C(=O)N1C2CC2C[C@H]1c1nc2ccc3cc(C#Cc4ccc5c(ccc6nc([C@@H]7C[C@H]8C[C@H]8N7C(=O)[C@@H](NC(=O)OC)C(C)C)[nH]c65)c4)ccc3c2[nH]1)C(C)C (stereo partly drawn)	<10 fold	>100 fold
COC(=O)N[C@H](C(=O)N1CCC[C@H]1c1ncc(C#Cc2ccc3cc(C#Cc4cnc([C@@H]5CCCN5C(=O)[C@@H](NC(=O)OC)C(C)C)[nH]4)ccc3c2)[nH]1)C(C)C	>10 fold	<10 fold
COC(=O)N[C@H](C(=O)N1CCC[C@H]1c1nc(-c2ccc(C#Cc3ccc(-c4ccc(-c5c[nH]c([C@@H]6CCCN6C(=O)[C@@H](NC(=O)OC)C(C)C)n5)cc4)cc3)cc2)c[nH]1)C(C)C	<10 fold	<10 fold
COC(=O)N[C@H](C(=O)N1[C@@H]2C[C@@H]2C[C@H]1c1ncc(-c2ccc(C#Cc3ccc4c(ccc5[nH]c([C@@H]6C[C@H]7C[C@H]7N6C(=O)[C@@H](NC(=O)OC)C(C)C)nc54)c3)cc2)[nH]1)C(C)C	<10 fold	>10 fold
COC(=O)N[C@H](C(=O)N1[C@@H]2C[C@@H]2C[C@H]1c1nc2ccc3cc(C#CC#Cc4ccc5c(ccc6nc([C@@H]7C[C@H]8C[C@H]8N7C(=O)[C@@H](NC(=O)OC)C(C)C)[nH]c65)c4)ccc3c2[nH]1)C(C)C	>10 fold	>10 fold
COC(=O)N[C@H](C(=O)N1CCC[C@H]1c1ncc(-c2ccc(-c3ccc4cc(-c5cnc([C@@H]6CCCN6C(=O)[C@@H](NC(=O)OC)C6CCOCC6)[nH]5)ccc4c3)cc2)[nH]1)C1CCOCC1	<10 fold	>10 fold
COC(=O)N[C@H](C(=O)N1[C@@H]2C[C@@H]2C[C@H]1c1ncc(-c2ccc(-c3ccc4cc(-c5cnc([C@@H]6C[C@H]7C[C@H]7N6C(=O)[C@@H](NC(=O)OC)C(C)C)[nH]5)ccc4c3)cc2)[nH]1)C(C)C	<10 fold	>10 fold
COC(=O)N[C@H](C(=O)N1CCC[C@H]1c1nc2ccc(-c3ccc4nc(-c5ccc6nc([C@@H]7CCCN7C(=O)[C@@H](NC(=O)OC)C(C)C)[nH]c6c5)ccc4c3)cc2[nH]1)C(C)C	>10 fold	>10 fold
COC(=O)N[C@H](C(=O)N1CCC[C@H]1c1nc2ccc(Oc3ccc(-c4ccc5nc([C@@H]6CCCN6C(=O)[C@@H](NC(=O)OC)C(C)C)[nH]c5c4)cc3)cc2[nH]1)C(C)C	<10 fold	<10 fold
COC(=O)N[C@H](C(=O)N1[C@@H]2C[C@@H]2C[C@H]1c1ncc(-c2ccc3cc(-c4ccc5[nH]c([C@@H]6C[C@H]7C[C@H]7N6C(=O)[C@@H](NC(=O)OC)C(C)C)nc5c4)ccc3c2)[nH]1)C(C)C	>100 fold	>100 fold
CCC1(c2ccc(NC(=O)[C@@H]3C[C@H]4C[C@H]4N3C(=O)[C@@H](NC(=O)OC)C(C)C)cc2)CC2C3CC4CC(c5ccc(NC(=O)[C@@H]6C[C@H]7C[C@H]7N6C(=O)[C@@H](NC(=O)OC)C(C)C)cc5)(C3)CC2C4C1 (stereo partly drawn)	<10 fold	<10 fold
